From patent US12331042B2, “Compounds suitable for the treatment and prophylaxis of muscle wasting and other conditions” (priority 2019, dated 2025)
“Also recorded” adds a separate entry of the source.

Assays:
MuRF1 E3 ligase activity = MuRF1 E3 ligase activity (Homo sapiens, UniProt Q969Q1); test: Inhibition of MuRF1 E3 ligase activity (ubiquitination, Western blot); assay type: biochemical; details: 20-100 μmol/L compound, 1 h at 37° C., based on ubiquitination patterns
Experimental: Compounds were then assessed for effects on MuRF1 E3 ligase activity directed to titin or to MuRF1 itself (self-ubiquitination) by mixing 75 nmol/L UBE1 (Boston Biochem), 1 μmol/L UbcH5c (Boston Biochem), 100 μmol/L Ubiquitin, 4 mmol/L ATP, 100 nmol/L Titin A168-170 with 20-100 μmol/L of respective compounds. Reactions were started by addition of 220 nmol/L MuRF1, followed by 1 h at 37° C., SDS PAGE and Western blot analysis with MuRF1 and titin specific antibodies. All reactions also included 5% DMSO.

[1] = system: monocrotaline (MCT)-treated C57BL/6 mice; test: Pulmonary hypertension mouse model, test series 2; assay type: in vivo; details: MCT+compound (0.1 weight-% in chow) vs MCT, 8 weeks
Experimental: The test series 2 were performed analogous to test series 1. Briefly, Three groups of mice were included in this study: 1) saline-treated mice (sham; n=10); 2) monocrotaline (MCT)-treated mice fed with normal chow (MCT; n=10); and 3) MCT-treated mice fed with MuRF1 inhibitor chow (MCT+compound; n=10 for each compound). 8 weeks old C57BL/6 mice were subcutaneously injected weekly with either MCT (600 mg/kg) or a matched volume of saline for 8 weeks. The MCT+compound group started receiving the inhibitor chow 1 week prior to the MCT injections, whereas the sham and MCT groups were fed an identical chow but without the addition of the selected compound. The compound concentration in the chow was 0.1 weight-%, resulting in a daily compound intake per mouse of about 3 mg. Body weight was recorded every week for each mouse. Mice were sacrificed after 8 weeks treatment. At sacrifice, examination and tissue analysis were performed as described in test series 1.

[2] = system: porin, telethonin, MRPS-5, MuRF1, MuRF2, Tom20 expression; test: Western blot analysis of diaphragm, CHF mice; assay type: in vivo
Experimental: For western blot analyses, frozen diaphragm was homogenized in relaxing buffer (90 mmol/L HEPES, 126 mmol/L potassium chloride, 36 mmol/L sodium chloride, 1 mmol/L magnesium chloride, 50 mmol/L EGTA, 8 mmol/L ATP, and 10 mmol/L creatine phosphate, pH 7.4) containing a protease inhibitor mix (Inhibitor Mix M, Serva, Heidelberg, Germany) and sonicated. Protein concentration of the supernatant was determined (bicinchoninic acid assay, Pierce, Bonn, Germany), and aliquots (5-20 μg) were separated by sodium dodecyl sulfate-polyacrylamide gel electrophoresis. Proteins were transferred to a polyvinylidene fluoride membrane and incubated overnight at 4° C. using the following primary antibodies: porin and telethonin (both 1/1000, Abcam, Cambridge, UK), MRPS-5 ( 1/500, Thermo Fisher, Rockford, IL, USA), MuRF1 and MuRF2 (both 1/1000; commercially available from Myomedix, Neckargemünd, Germany), and Tom20 (1:200, Santa Cruz Biotechnologies, Heidelberg, Germany). Membranes were subsequently incubated with a horseradish peroxidase conjugated secondary antibody, specific bands were visualized by enzymatic chemiluminescence (Super Signal West Pico, Thermo Fisher Scientific Inc., Bonn, Germany), and densitometry was quantified using a one-dimensional scan software package (Scanalytics Inc., Rockville, MD, USA). Measurements were normalized to the loading control GAPDH ( 1/30000; HyTest Ltd, Turku, Finland) or α-tubulin (1:1000, Santa Cruz Biotechnologies). All data are presented as fold change relative to sham.

[3] = system: monocrotaline (MCT)-treated C57BL/6 mice; test: Pulmonary hypertension mouse model, test series 1; assay type: in vivo; details: MCT+compound chow vs MCT
Experimental: The animal experiments were approved by the Regierungspräsidium Karlsruhe (35-9185.81/G-141/13) and the Regierungspräsidium Leipzig (TVV 40/16). Three groups of mice were included in this study, including: 1) saline-treated (sham; n=20); 2) monocrotaline (MCT)-treated fed normal chow (MCT; n=27); and 3) MCT-treated fed MuRF1 inhibitor chow (MCT+compound; n=27). Briefly, C57BL/6 mice (aged 8 weeks) were subcutaneously injected weekly with either MCT (600 mg/kg) or a matched volume of saline for 6 weeks, a time period where MCT is known to induce cardiac cachexia due to pulmonary hypertension and subsequent RV dysfunction rather than anorexia, as described by Ahn et al., PLoS One, 2013, 8:e62702. Mice were exposed to identical conditions under a 12:12 h light/dark cycle with food and water provided ad libitum. The MCT+compound group started receiving the inhibitor chow 1 week prior to the MCT injections, whereas the sham and MCT groups were fed an identical chow but without the addition of the selected compound. Body weight was recorded every week for each mouse. […]
For histological evaluation, paraffin-embedded TA muscle sections (3 μm) were stained with H&E and fiber cross-sectional area (CSA) and then evaluated by imaging software (Analysis 3.0, Olympus Soft Imaging Solutions GmbH, Munster, Germany). […]

Sequence of MuRF1 E3 ligase activity (Q969Q1 whole entry): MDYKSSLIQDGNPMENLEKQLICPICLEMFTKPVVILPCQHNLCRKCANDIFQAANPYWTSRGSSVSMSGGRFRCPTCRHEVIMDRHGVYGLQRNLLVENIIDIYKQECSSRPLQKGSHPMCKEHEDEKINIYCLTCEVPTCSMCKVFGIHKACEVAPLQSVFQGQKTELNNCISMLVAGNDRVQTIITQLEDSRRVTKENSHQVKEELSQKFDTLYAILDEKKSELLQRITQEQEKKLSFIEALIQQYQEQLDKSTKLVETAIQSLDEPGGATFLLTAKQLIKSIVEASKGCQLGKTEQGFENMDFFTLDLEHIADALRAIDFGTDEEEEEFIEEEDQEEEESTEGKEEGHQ

## Cc1cc(=O)oc2cc(OCc3ccc(C(=O)OCC(=O)NC(=O)NCc4ccco4)cc3)ccc12 [MyoMed-946, [2-(2-furylmethylcarbamoylamino)-2-oxo-ethyl] 4-[(4-methyl-2-oxo-chromen-7-yl)oxymethyl]benzoate]
MuRF1 E3 ligase activity
  inhibition of MuRF1 E3 ligase activity: significantly inhibit MuRF1 E3 ligase activity
[1]
  right ventricle hypertrophy: attenuated; also recorded: attenuate the development of right ventricle hypertrophy
[2]; CHF+compound
  TOM-20 expression: attenuated; also recorded: modest, but statistically significant, improvement
  mitochondrial porin expression: attenuated; also recorded: near-normal
[2]; CHF+compound vs CHF
  reduction of Mrps5 expression (Western blot): reversed
  up-regulation of MuRF1 expression: attenuated; also recorded: prevented
  up-regulation of MuRF2 expression: attenuated; also recorded: prevented
[2]; trend (P=0.08) in CHF group
  reduced expression of telethonin: attenuated; also recorded: not evident
[3]; 6 weeks MCT
  right ventricle hypertrophy: attenuated; also recorded: attenuates the development of right ventricle hypertrophy
[3]; most obvious effect in TA muscle
  loss of skeletal muscle mass (EDL, soleus, TA wet weight, TA fiber CSA): protected
